Assay results published in patent publication US20230365556A1, “N-ACYL AMINO ACID COMPOUNDS AND METHODS OF USE” (Pliant Therapeutics, Inc., priority 2016, published 2023).

target: αvβ1 integrin (αvβ1 expressing CHO cells) (Homo sapiens (Human), UniProt P05556+P06756); assay: Cell adhesion assay: inhibition of αvβ1 expressing CHO cells attaching to TGFβ1LAP; assay type: cell-based; conditions: 1 h at 37° C., crystal violet absorbance 595 nm, read-out: αvβ1 Inhibition IC50 (nM)-range
How it was run: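 Plates coated with 2 ug/ml TGFβ1LAP and blocked with 2% BSA; cells (1.0×10^6 cells/ml in DMEM) incubated with compound 1 hour at 37° C. Non-adherent cells removed by centrifugation; adherent cells stained with crystal violet, absorbance 595 nm, IC50 by four-parameter non-linear regression.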

αvβ1 integrin (αvβ1 expressing CHO cells), sequence (P06756 31-889): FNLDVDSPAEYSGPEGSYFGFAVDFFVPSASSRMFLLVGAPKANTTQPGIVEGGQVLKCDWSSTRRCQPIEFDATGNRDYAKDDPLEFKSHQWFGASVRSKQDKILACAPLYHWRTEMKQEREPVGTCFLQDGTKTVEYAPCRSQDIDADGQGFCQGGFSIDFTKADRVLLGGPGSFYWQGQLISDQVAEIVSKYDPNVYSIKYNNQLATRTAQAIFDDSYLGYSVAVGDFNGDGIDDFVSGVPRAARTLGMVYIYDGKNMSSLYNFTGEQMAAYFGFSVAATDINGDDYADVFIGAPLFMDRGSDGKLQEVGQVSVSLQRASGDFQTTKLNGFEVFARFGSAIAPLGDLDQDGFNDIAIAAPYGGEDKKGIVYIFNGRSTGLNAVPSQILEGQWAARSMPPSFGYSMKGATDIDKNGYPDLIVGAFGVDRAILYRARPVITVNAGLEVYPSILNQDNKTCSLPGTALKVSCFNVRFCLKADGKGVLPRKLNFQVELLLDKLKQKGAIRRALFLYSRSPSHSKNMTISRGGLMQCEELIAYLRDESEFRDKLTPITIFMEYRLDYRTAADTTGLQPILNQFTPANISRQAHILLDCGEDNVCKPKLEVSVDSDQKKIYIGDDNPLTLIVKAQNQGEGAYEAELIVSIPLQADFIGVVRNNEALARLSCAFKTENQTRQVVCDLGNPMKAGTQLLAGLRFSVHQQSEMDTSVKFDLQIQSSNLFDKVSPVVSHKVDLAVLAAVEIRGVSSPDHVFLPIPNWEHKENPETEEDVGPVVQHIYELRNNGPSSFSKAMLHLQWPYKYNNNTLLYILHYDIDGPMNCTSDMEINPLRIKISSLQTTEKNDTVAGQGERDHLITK
αvβ1 integrin (αvβ1 expressing CHO cells), sequence (P06756 891-1048 partner): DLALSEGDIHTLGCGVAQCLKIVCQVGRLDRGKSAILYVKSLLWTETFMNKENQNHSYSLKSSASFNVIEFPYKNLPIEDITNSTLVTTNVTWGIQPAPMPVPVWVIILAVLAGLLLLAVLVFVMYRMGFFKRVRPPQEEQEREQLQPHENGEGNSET
αvβ1 integrin (αvβ1 expressing CHO cells), sequence (P05556 21-798): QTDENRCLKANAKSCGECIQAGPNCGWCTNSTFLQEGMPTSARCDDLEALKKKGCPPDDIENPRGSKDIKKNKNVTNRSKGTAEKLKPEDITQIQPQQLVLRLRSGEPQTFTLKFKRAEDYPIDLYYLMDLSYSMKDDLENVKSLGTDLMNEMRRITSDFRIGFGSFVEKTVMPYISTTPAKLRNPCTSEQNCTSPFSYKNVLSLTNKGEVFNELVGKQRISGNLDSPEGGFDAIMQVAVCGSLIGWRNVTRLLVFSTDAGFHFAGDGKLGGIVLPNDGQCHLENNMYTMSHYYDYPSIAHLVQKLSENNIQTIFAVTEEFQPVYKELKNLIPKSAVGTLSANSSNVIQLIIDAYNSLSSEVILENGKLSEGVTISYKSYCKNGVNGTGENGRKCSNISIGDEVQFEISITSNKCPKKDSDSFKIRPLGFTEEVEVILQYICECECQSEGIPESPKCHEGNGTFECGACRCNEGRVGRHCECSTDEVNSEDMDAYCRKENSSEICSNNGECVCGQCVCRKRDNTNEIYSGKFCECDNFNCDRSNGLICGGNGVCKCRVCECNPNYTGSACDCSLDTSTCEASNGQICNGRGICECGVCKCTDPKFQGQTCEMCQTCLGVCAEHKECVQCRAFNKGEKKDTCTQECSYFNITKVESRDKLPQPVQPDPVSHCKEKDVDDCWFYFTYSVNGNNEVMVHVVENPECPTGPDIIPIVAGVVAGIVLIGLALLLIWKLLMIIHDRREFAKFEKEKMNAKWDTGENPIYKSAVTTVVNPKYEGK

IC50 [nM]	Compound
50 to 250	Cn1ncc2ccc(C(=O)NC(CCCCCCCc3ccc4c(n3)NCCC4)C(=O)O)cc21 (stereo not drawn) [Compound 81, 2-(1-methyl-1H-indazole-6-carboxamido)-9-(5,6,7,8-tetrahydro-1,8-naphthyridin-2-yl)nonanoic acid]

target: recombinant human integrin αvβ1 (Homo sapiens (Human), UniProt P05556+P06756); assay: Solid phase integrin αvβ1 binding assay (fibronectin); conditions: recombinant human integrin αvβ1 coated plate, recombinant fibronectin 2 ug/ml, 2 hours at 25° C., read-out: αvβ1 Inhibition IC50 (nM)-range
Method: Example B2—Solid Phase Integrin αvβ1 Binding Assay
Microplates were coated with recombinant human integrin αvβ1 (2 ug/ml) in PBS (100 ul/well 4° C., overnight). The coating solution was removed, washed with PBS. Plate was blocked with 200 ul/well of Block Buffer (2% BSA in PBS) at 37° C. for 1 h. Dilutions of testing compounds and recombinant fibronectin (2 ug/ml) in binding and washing buffer (50 mM Tris-HCl, ph7.5; 0.1% BSA, 1 mM MnCl2; NaCl 150 mM; 0.02% Tween-20; 1 mM CaCl2); 1 mM MgCl2) were added. The plate was incubated for 2 hours at 25° C., washed, and incubated for 1 hour with Biotin-Anti-fibronectin. Bound antibody was detected by peroxidase-conjugated streptavidin. The IC50 values for testing compounds were calculated by a four-parameter logistic regression.
The compounds tested were compound samples prepared according to procedures described in the Synthetic Examples section, with the stereochemical purity as indicated in the Examples. The compounds tested were predominantly S-configuration at the alpha carbon of the amino acid scaffold, except for compounds 123, 124, and 125 which were predominantly R-configuration at the alpha carbon of the amino acid scaffold.

recombinant human integrin αvβ1, sequence (P06756 31-889): as the sequence (P06756 31-889) above
recombinant human integrin αvβ1, sequence (P06756 891-992 partner): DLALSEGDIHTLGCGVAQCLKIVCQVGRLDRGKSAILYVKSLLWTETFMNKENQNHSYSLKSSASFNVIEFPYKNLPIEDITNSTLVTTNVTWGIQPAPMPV
recombinant human integrin αvβ1, sequence (P05556 21-728): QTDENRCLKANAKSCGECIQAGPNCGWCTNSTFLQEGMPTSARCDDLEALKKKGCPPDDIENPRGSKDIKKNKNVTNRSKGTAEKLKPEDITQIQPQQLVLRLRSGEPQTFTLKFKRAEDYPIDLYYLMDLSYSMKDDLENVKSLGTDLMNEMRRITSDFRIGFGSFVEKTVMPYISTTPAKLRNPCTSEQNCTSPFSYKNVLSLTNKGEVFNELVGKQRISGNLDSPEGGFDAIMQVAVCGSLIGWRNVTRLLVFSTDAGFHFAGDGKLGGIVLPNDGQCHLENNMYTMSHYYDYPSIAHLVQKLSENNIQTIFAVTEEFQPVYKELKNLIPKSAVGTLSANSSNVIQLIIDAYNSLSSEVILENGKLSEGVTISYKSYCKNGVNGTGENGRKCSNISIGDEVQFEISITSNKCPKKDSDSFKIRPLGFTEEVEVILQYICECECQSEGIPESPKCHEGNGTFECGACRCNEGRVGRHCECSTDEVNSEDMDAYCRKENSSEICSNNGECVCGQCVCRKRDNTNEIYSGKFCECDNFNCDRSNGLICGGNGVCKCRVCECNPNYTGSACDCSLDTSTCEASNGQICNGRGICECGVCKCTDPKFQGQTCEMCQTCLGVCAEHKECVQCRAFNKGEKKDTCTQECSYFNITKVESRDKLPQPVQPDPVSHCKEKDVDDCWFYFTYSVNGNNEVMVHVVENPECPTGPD

IC50 [nM]	Compound
< 50	O=C(NC(CCCCCCCc1ccc2c(n1)NCCC2)C(=O)O)c1ccc(Cl)cc1 (stereo not drawn) [Compound 87]
< 50	Cc1cc(C)n(-c2cccc(C(=O)N[C@@H](CCCCCCCc3ccc4c(n3)NCCC4)C(=O)O)c2)n1 [Compound 119]
< 50	O=C(NC(CCCCCCCc1ccc2c(n1)NCCC2)C(=O)O)c1ccccc1Cl (stereo not drawn) [Compound 96]
< 50	O=C(NC(CCCCCCCc1ccc2c(n1)NCCC2)C(=O)O)c1cccc(F)c1 (stereo not drawn) [Compound 92]
50 to 250	O=C(N[C@@H](CCCCCCCc1ccc2c(n1)NCCC2)C(=O)O)c1cccc(-c2cncs2)c1 [Compound 126]
< 50	O=C(N[C@@H](CCCCCCCc1ccc2c(n1)NCCC2)C(=O)O)c1cc(F)cc(C(F)(F)F)c1 [Compound 122]
< 50	O=C(NC(CCCCCCCc1ccc2c(n1)NCCC2)C(=O)O)c1c(Cl)cccc1Cl (stereo not drawn) [Compound 65, 2-(2,6-dichlorobenzamido)-9-(5,6,7,8-tetrahydro-1,8-naphthyridin-2-yl)nonanoic acid]
< 50	O=C(NC(CCCCCCCc1ccc2c(n1)NCCC2)C(=O)O)c1ccccc1F (stereo not drawn) [Compound 95]
< 50	COc1cccc(C(=O)NC(CCCCCCCc2ccc3c(n2)NCCC3)C(=O)O)c1 (stereo not drawn) [Compound 93]
< 50	Cn1ncc2ccc(C(=O)NC(CCCCCCCc3ccc4c(n3)NCCC4)C(=O)O)cc21 (stereo not drawn) [Compound 81, 2-(1-methyl-1H-indazole-6-carboxamido)-9-(5,6,7,8-tetrahydro-1,8-naphthyridin-2-yl)nonanoic acid]
< 50	O=C(NC(CCCCCCCc1ccc2c(n1)NCCC2)C(=O)O)c1ccc(F)cc1 (stereo not drawn) [Compound 88]
